Laboratory results published in publication PMC7614683, “A small molecule PI3Kα activator for cardioprotection and neuroregeneration” (Nature, 2023).

Biological target: T1, mTORC1 (mTOR/RAPTOR/LST8 complex) (Homo sapiens, UniProt P42345)
T1 construct: made in house
Experiment: mTORC1 in vitro kinase assay (Phos-tag gel)
Assay type: biochemical
Conditions: 200 μM 1938
Method: 133 protein kinases and 7 lipid kinases were counterscreened, with 1938 used at 1 μM, using the Adapta, Lantha and Z-LYTE assays (SelectScreen Kinase Profiling Service; Thermofisher – experimental details of these assays can be found here: https://www.thermofisher.com/uk/en/home/industrial/pharma-biopharma/drug-discovery-development/target-and-lead-identification-and-validation/kinasebiology/kinase-activity-assays.html. The tree represention in KinMap[59] generated courtesy of Cell Signaling Technology, Inc. (www.cellsignal.com). mTORC1 (mTOR/RAPTOR/LST8) protein complex and ATM kinase and substrates were produced as previously described[57],[60]. Screening of 1938 was conducted using SuperSep Phos-Tag 50 μmol/l 100 x 100 x 6.6 mm 17-well (192-18001/199-18011) gels. For ATM assays, 100 nM ATM was incubated for 30 min at 30°C with 5 μM GST-p53 and 1 mM ATP, in the absence or presence of 200 μM 1938 in ATM Kinase Buffer (50 mM HEPES pH 7.5, 100 mM NaCl, 10% glycerol, 2 mM […], 5 mM MgCl2). As a positive control for ATM activation, the same reaction was carried out with 100 nM ATM/5 μM GST-p53/1 mM ATP in the presence of 100 nM Mre11-Rad50-Nbs1 (MRN) complex, a known activator of ATM[61]. […] Gels were then stained using InstantBlue™ Coomassie, and quantified using BioRad Image Lab Software. […]

CCN1CCN(c2ccc(Nc3cc(Nc4cccc5c4N(C(C)=O)CC5)ccn3)cc2)CC1 [Compound 1938]
effect on mTORC1 activity: did not affect the activity
